Measured values reported in patent US7989462B2, “4-arylamin-or-4-heteroarylamino-quinazolines and analogs as activators of caspases and inducers of apoptosis and the use thereof” (Myrexis, Inc., priority 2003, dated 2011).

Tested on: T-47D
Assay: Caspase cascade activation in T-47D solid tumor cells (fluorogenic N-(Ac-DEVD)-N'-ethoxycarbonyl-R110 substrate)
Assay type: cell-based, Human
Conditions: T-47D (24 hr); for EC50: Homo sapiens, T47D, read-out: Caspase Potency EC50; for Caspase Activity Ratio: ratio of net RFU of test compound to that of control samples
Experimental: Human breast cancer cell lines T-47D and DLD-1 were grown according to media component mixtures designated by American Type Culture Collection+10% FCS (Invitrogen Corporation), in a 5% CO2-95% humidity incubator at 37° C. T-47D and DLD-1 cells were maintained at a cell density between 50 and 80% confluency at a cell density of 0.1 to 0.6×10^6 cells/mL. Cells were harvested at 600×g and resuspended at 0.65×10^6 cells/mL into appropriate media+10% FCS. An aliquot of 22.5 μL of cells was added to a well of a 384-well microtiter plate containing 2.5 μL of a 10% DMSO in RPMI-1640 media solution containing 0.16 to 100 μM of (2-chloro-quinazolin-4-yl)-(4-dimethylaminophenyl)-methylamine or other test compound (0.016 to 10 μM final). An aliquot of 22.5 μL of cells was added to a well of a 384-well microtiter plate containing 2.5 μL of a 10% DMSO in RPMI-1640 media solution without test compound as the control sample. […] After incubation, the samples were removed from the incubator and 25 μL of a solution containing 14 μM of N-(Ac-DEVD)-N′-ethoxycarbonyl-R110 fluorogenic substrate (Cytovia, Inc.; WO99/18856), 20% sucrose (Sigma), 20 mM DTT (Sigma), 200 mM NaCl (Sigma), 40 mM Na PIPES buffer pH 7.2 (Sigma), and 500 μg/mL lysolecithin (Calbiochem) was added. The samples were mixed by agitation and incubated at room temperature. Using a fluorescent plate reader (Model SPECTRAfluor Plus, Tecan), an initial reading (T=0) was made approximately 1-2 min after addition of the substrate solution, employing excitation at 485 nm and emission at 530 nm, to determine the background fluorescence of the control sample. After the 3 h incubation, the samples were read for fluorescence as above (T=3 h).
The Relative Fluorescence Unit values (RFU) were used to calculate the sample readings as follows: RFU(T=3h)−Control RFU(T=0)=Net RFU(T=3h)
The activity of caspase cascade activation was determined by the ratio of the net RFU value for (2-chloro-quinazolin-4-yl)-(4-dimethylaminophenyl)-methylamine or other test compounds to that of control samples. The EC50 (nM) was determined by a sigmoidal dose-response calculation (Prism 3.0, GraphPad Software Inc.).

EC50	Compound	Caspase Activity Ratio
> 10000 nM	Cc1nc(N(C)c2ccc3c(c2)nnn3C)c2ccccc2n1 [Example 23, (1-Methyl-1H-benzotriazol-5-yl)-(2-methyl-quinazolin-4-yl)-methylamine]	1.1
258 nM	COc1ccc(CNc2nc(N(C)c3ccc(OC)cc3)c3ccccc3n2)cc1 [Example 9]	5.6
619 nM	CNc1nc(N(C)c2ccc(OC)cc2)c2cc([N+](=O)[O-])ccc2n1 [Example 17, (2-Methylamino-6-nitroquinazolin-4-yl)-(4-methoxyphenyl)-methylamine]	3.7
> 10000 nM	CSc1ccc(Nc2nc(C)nc3ccccc23)cc1 [Example 20, (4-Methylthio-phenyl)-(2-methyl-quinazolin-4-yl)-amine]	1.1
